Test results taken from patent US20240150303A1, “DIAMINOTRIAZINE COMPOUNDS” (BASF SE, priority 2021, published 2024).

Columns and labels:
Experiment in all cases: greenhouse pre-emergence herbicidal test
Assay type in all cases: in vivo
Amaranthus retroflexus = system: Amaranthus retroflexus
From the text: (§1) The seeds of the test plants were sown separately for each species. For the pre-emergence treatment, the active ingredients, which had been suspended or emulsified in water, were applied directly after sowing by means of finely distributing nozzles. The containers were irrigated gently to promote germination and growth and subsequently covered with transparent plastic hoods until the plants had rooted. This cover caused uniform germination of the test plants, unless this had been impaired by the active ingredients. […] The test period extended over 2 to 4 weeks. During this time, the plants were tended, and their response to the individual treatments was evaluated. Evaluation was carried out using a scale from 0 to 100. 100 means no emergence of the plants, or complete destruction of at least the aerial moieties, and 0 means no damage, or normal course of growth. A moderate herbicidal activity is given at values of at least 60, a good herbicidal activity is given at values of at least 70, and a very good herbicidal activity is given at values of at least 85. The plants used in the greenhouse experiments were of the following species: [table]

Echinocloa crus-galli = system: Echinocloa crus-galli
From the text: as §1

Abutilon theophrasti = system: Abutilon theophrasti
From the text: (§2) The culture containers used were plastic flowerpots containing loamy sand with approximately 3.0% of humus as the substrate. The seeds of the test plants were sown separately for each species.
(§3) For the pre-emergence treatment, the active ingredients, which had been suspended or emulsified in water, were applied directly after sowing by means of finely distributing nozzles.
(§4) The containers were irrigated gently to promote germination and growth and subsequently covered with transparent plastic hoods until the plants had rooted. This cover caused uniform germination of the test plants, unless this had been impaired by the active ingredients.
(§5) Depending on the species, the plants were kept at 10-25° C. or 20-35° C., respectively.
(§6) The test period extended over 2 to 4 weeks. During this time, the plants were tended, and their response to the individual treatments was evaluated.
(§7) Evaluation was carried out using a scale from 0 to 100. 100 means no emergence of the plants, or complete destruction of at least the aerial moieties, and 0 means no damage, or normal course of growth. A moderate herbicidal activity is given at values of at least 60, a good herbicidal activity is given at values of at least 70, and a very good herbicidal activity is given at values of at least 85.
(§8) The plants used in the greenhouse experiments were of the following species: […]

Alopercurus myosuroides = system: Alopercurus myosuroides
From the text: as §2, §3, §4, §5, §6, §7, §8

Setaria faberi = system: Setaria faberi
From the text: as §1

SMILES | herbicidal activity (Amaranthus retroflexus; 62 g/ha) | herbicidal activity (Echinocloa crus-galli; 62 g/ha) | herbicidal activity (Echinocloa crus-galli; 62.5 g/ha) | herbicidal activity (Abutilon theophrasti; 62 g/ha) | herbicidal activity (Setaria faberi; 62.5 g/ha) | herbicidal activity (Setaria faberi; 62 g/ha) | herbicidal activity (Amaranthus retroflexus; 62.5 g/ha) | further results
COc1c(F)cc(C)c(C)c1Nc1nc(N)nc(C(C)(C)F)n1 [Example 54] | 100% | 100% | 100% | 100% | – | – | – | herbicidal activity (Abutilon theophrasti; 62.5 g/ha): 100%; herbicidal activity (Alopercurus myosuroides; 62.5 g/ha): 100%
COc1c(F)ccc(Cl)c1Nc1nc(N)nc(C2(F)CCCC2)n1 [Example 53] | 100% | 100% | 98% | 100% | 100% | – | – | herbicidal activity (Alopercurus myosuroides; 62.5 g/ha): 90%
COc1c(Cl)cc(F)c(C)c1Nc1nc(N)nc(C2(F)CC2)n1 [Example 92] | 100% | 100% | 100% | – | – | 100% | – | herbicidal activity (Abutilon theophrasti; 62.5 g/ha): 100%; herbicidal activity (Alopercurus myosuroides; 62.5 g/ha): 100%
COc1c(Cl)cc(F)c(C)c1Nc1nc(N)nc(C(C)(F)CCl)n1 (stereo not drawn) [Example 68] | 100% | 100% | – | 100% | – | 100% | – | –
COc1c(Cl)ccc(Cl)c1Nc1nc(N)nc(C(C)F)n1 (stereo not drawn) [Example 71] | 100% | 100% | – | 100% | – | 100% | – | –
COc1c(Br)cc(Cl)c(C)c1Nc1nc(N)nc(C(C)(F)F)n1 [Example 97] | 85% | – | – | – | – | 85% | – | herbicidal activity (Alopercurus myosuroides; 62 g/ha): 70%
COc1c(Br)cc(Br)c(C)c1Nc1nc(N)nc(C(C)(C)F)n1 [Example 38] | – | – | 100% | – | 100% | – | 100% | herbicidal activity (Amaranthus retroflexus; 250 g/ha): 100%; herbicidal activity (Setaria faberi; 250 g/ha): 100%; herbicidal activity (Abutilon theophrasti; 250 g/ha): 100%
COc1c(F)cc(C)c(Cl)c1Nc1nc(N)nc(C(C)(C)F)n1 [Example 55] | – | 100% | 100% | 100% | – | 100% | 100% | herbicidal activity (Abutilon theophrasti; 62.5 g/ha): 100%
COc1c(Cl)cc(Br)c(C)c1Nc1nc(N)nc(C2(F)CCCC2)n1 [Example 61] | – | 70% | – | – | – | 85% | – | herbicidal activity (Amaranthus retroflexus; 31 g/ha): 100%; herbicidal activity (Echinocloa crus-galli; 31 g/ha): 100%; herbicidal activity (Abutilon theophrasti; 31 g/ha): 100%; herbicidal activity (Alopercurus myosuroides; 62 g/ha): 75%
COc1c(Cl)ccc(Cl)c1Nc1nc(N)nc(C(C)(C)F)n1 [Example 20] | – | 100% | 100% | – | – | 100% | 100% | herbicidal activity (Abutilon theophrasti; 62.5 g/ha): 100%; herbicidal activity (Alopercurus myosuroides; 62 g/ha): 100%
CC#CCOc1c(F)cc(Br)c(Cl)c1Nc1nc(N)nc(C(C)(C)F)n1 [Example 59] | 100% | – | 95% | – | 100% | 100% | – | herbicidal activity (Abutilon theophrasti; 62.5 g/ha): 100%; herbicidal activity (Alopercurus myosuroides; 62 g/ha): 95%
COc1c(Cl)cc(C)c(Cl)c1Nc1nc(N)nc(C(C)(C)F)n1 [Example 63] | 100% | 100% | – | 100% | – | – | – | herbicidal activity (Amaranthus retroflexus; 31 g/ha): 80%; herbicidal activity (Setaria faberi; 31 g/ha): 100%; herbicidal activity (Alopercurus myosuroides; 31 g/ha): 80%
COc1c(Cl)cc(Cl)c(C)c1Nc1nc(N)nc(C2(F)CC2)n1 [Example 93] | 100% | 100% | – | – | 70% | 100% | 100% | herbicidal activity (Abutilon theophrasti; 62.5 g/ha): 80%
COc1c(Cl)cc(Cl)c(C)c1Nc1nc(N)nc(C(F)(F)F)n1 [Example 33] | – | – | 98% | – | – | – | 100% | herbicidal activity (Echinocloa crus-galli; 125 g/ha): 100%; herbicidal activity (Setaria faberi; 125 g/ha): 100%; herbicidal activity (Abutilon theophrasti; 62.5 g/ha): 100%; herbicidal activity (Alopercurus myosuroides; 125 g/ha): 100%
CC#CCOc1c(F)ccc(Cl)c1Nc1nc(N)nc(C(C)(C)F)n1 [Example 51] | 100% | 100% | – | 100% | – | 100% | – | –
COc1c(Br)cc(Cl)c(C)c1Nc1nc(N)nc(C(C)(F)CCl)n1 (racemic) [Example 98] | 100% | – | – | – | – | 100% | – | herbicidal activity (Alopercurus myosuroides; 62 g/ha): 100%

SMILES | herbicidal activity (Amaranthus retroflexus; 62 g/ha) | herbicidal activity (Echinocloa crus-galli; 62 g/ha) | herbicidal activity (Echinocloa crus-galli; 62.5 g/ha) | herbicidal activity (Abutilon theophrasti; 62 g/ha) | herbicidal activity (Setaria faberi; 62.5 g/ha) | herbicidal activity (Setaria faberi; 62 g/ha) | herbicidal activity (Amaranthus retroflexus; 62.5 g/ha) | further results
COc1c(Br)cc(F)c(Cl)c1Nc1nc(N)nc(C(C)F)n1 (stereo not drawn) [Example 41] | – | 100% | 100% | 100% | 100% | 100% | 100% | –
CC#CCOc1c(F)cc(C)c(Cl)c1Nc1nc(N)nc(C(C)(C)F)n1 [Example 57] | 100% | 100% | – | – | – | 100% | – | herbicidal activity (Echinocloa crus-galli; 31 g/ha): 100%; herbicidal activity (Setaria faberi; 31 g/ha): 100%; herbicidal activity (Abutilon theophrasti; 31 g/ha): 98%
C#CCOc1c(F)ccc(Cl)c1Nc1nc(N)nc(C(C)(C)F)n1 [Example 50] | 100% | 100% | – | 100% | – | – | – | herbicidal activity (Amaranthus retroflexus; 31 g/ha): 100%; herbicidal activity (Setaria faberi; 31 g/ha): 100%; herbicidal activity (Abutilon theophrasti; 31 g/ha): 80%
CC#CCOc1c(Br)cc(F)c(Cl)c1Nc1nc(N)nc(C(C)(C)F)n1 [Example 32] | – | – | 100% | 100% | – | 100% | 100% | herbicidal activity (Abutilon theophrasti; 62.5 g/ha): 100%; herbicidal activity (Alopercurus myosuroides; 62 g/ha): 100%
COc1c(F)cc(Br)c(Cl)c1Nc1nc(N)nc(C(C)(C)F)n1 [Example 58] | 100% | 100% | 100% | – | 100% | 100% | – | herbicidal activity (Abutilon theophrasti; 62.5 g/ha): 100%
COc1c(Br)cc(F)c(Cl)c1Nc1nc(N)nc(C2(F)CCCC2)n1 [Example 40] | – | 100% | 100% | 100% | 100% | 100% | 100% | –
COc1c(Cl)cc(F)c(C)c1Nc1nc(N)nc(C(C)F)n1 (stereo not drawn) [Example 69] | 100% | 100% | – | 100% | – | 100% | – | –
COc1c(Cl)cc(Br)c(Cl)c1Nc1nc(N)nc(C(C)(C)F)n1 [Example 12] | – | – | – | – | – | – | – | herbicidal activity (Amaranthus retroflexus; 250 g/ha): 100%; herbicidal activity (Echinocloa crus-galli; 250 g/ha): 100%; herbicidal activity (Setaria faberi; 250 g/ha): 100%; herbicidal activity (Abutilon theophrasti; 250 g/ha): 100%; herbicidal activity (Alopercurus myosuroides; 250 g/ha): 100%
COc1c(F)cc(F)c(Br)c1Nc1nc(N)nc(C(C)(C)F)n1 [Example 13] | – | – | 100% | – | 100% | – | – | herbicidal activity (Amaranthus retroflexus; 31 g/ha): 100%; herbicidal activity (Echinocloa crus-galli; 31 g/ha): 100%; herbicidal activity (Abutilon theophrasti; 31 g/ha): 100%; herbicidal activity (Alopercurus myosuroides; 62.5 g/ha): 100%
COc1c(Cl)cc(F)c(C)c1Nc1nc(N)nc(C(C)(C)F)n1 [Example 70] | 100% | 100% | – | 100% | – | 100% | – | –
COc1c(Br)ccc(C)c1Nc1nc(N)nc(C(C)(C)F)n1 [Example 62] | 100% | 100% | – | 100% | – | – | – | herbicidal activity (Amaranthus retroflexus; 31 g/ha): 100%; herbicidal activity (Echinocloa crus-galli; 31 g/ha): 100%; herbicidal activity (Setaria faberi; 31 g/ha): 100%
COc1c(Cl)cc(F)c(C)c1Nc1nc(N)nc(C(C)(F)CBr)n1 (stereo not drawn) [Example 66] | 100% | 100% | – | 100% | – | 100% | – | –
CC#CCOc1c(Br)cc(F)c(C)c1Nc1nc(N)nc(C(C)(C)F)n1 [Example 21] | – | 100% | 100% | – | 100% | 100% | 95% | herbicidal activity (Alopercurus myosuroides; 62 g/ha): 100%
COc1c(Cl)cc(F)c(C)c1Nc1nc(N)nc(C(C)(F)F)n1 [Example 67] | 100% | 100% | – | 100% | – | 100% | – | –
COc1c(F)cc(F)c(Cl)c1Nc1nc(N)nc(C(C)(C)F)n1 [Example 9] | – | – | – | – | – | – | – | herbicidal activity (Amaranthus retroflexus; 32 g/ha): 100%; herbicidal activity (Amaranthus retroflexus; 250 g/ha): 100%; herbicidal activity (Echinocloa crus-galli; 32 g/ha): 100%; herbicidal activity (Setaria faberi; 250 g/ha): 95%; herbicidal activity (Abutilon theophrasti; 32 g/ha): 100%; herbicidal activity (Abutilon theophrasti; 250 g/ha): 90%
COc1c(Br)cc(Cl)c(C)c1Nc1nc(N)nc(C(C)(C)F)n1 [Example 39] | 100% | – | 100% | 100% | 100% | 100% | 100% | –
